Molecules are shown by their SMILES. Counter-ions that a name gives are not always drawn.

The target in this assay is T1, S1P1 (Homo sapiens, UniProt P21453).
T1 construct: expressed in transfected cells; host or cells: CHO cells (membranes)
Kind of assay: 35S-GTPγS binding, S1P1 membranes. Conditions: membranes from CHO cells expressing S1P1; 60 min 30° C. Type of assay: biochemical. The method, then: Receptor binding assay: Membranes were prepared from CHO cells expressing S1P1 or S1P3 for use in ligand and […] binding studies. Cells were suspended in 50 mM TRIS, pH 7.4, 2 mM EDTA, 250 mM Sucrose (buffer A) and 1× Complete protease inhibitor cocktail (Roche), and disrupted at 4° C. by N2 decompression using a cell disruption bomb (Parr Instrument). Following centrifugation at 1000 RPM for 10 min at 4° C., the supernatant was suspended in buffer A and centrifuged again at 19000 RPM for 60 min at 4° C. The pellet was then suspended in 10 mM HEPES, pH 7.4, 1 mM EDTA, 250 mM Sucrose (Buffer B), and 1× Complete EDTA-free protease inhibitor cocktail and homogenized using a potter. Membranes were flash frozen in liquid N2 and stored at −80° C. [33P]sphingosine 1-phosphate (3000 Ci/mmol; American Radiolabeled Chemicals, Inc.) was added to test compounds in DMSO. Membranes and WGA SPA beads (GE Healthcare) were added to give a final volume of 100 μl in 96-well plates with assay concentrations of 25 pM or 10 pM [33P]sphingosine 1-phosphate (respectively for S1P1 or S1P3), 50 mM HEPES, pH 7.5, 5 mM MgCl2, 100 mM NaCl, 0.4% fatty acid-free BSA, 1-5 μg/well of proteins and 100 μg/well of WGA SPA beads. Binding was performed for 60 min at RT on a shaker and bound radioactivity was measured on a PerkinElmer 1450 MicroBeta counter. Specific binding was calculated by subtracting remaining radioactivity in the presence of 1000-fold excess of unlabeled S1P. Binding data were analyzed using the GraphPad Prism program.
Measurements of ^35S-GTPγS Binding: Membranes (1 to 10 μg protein) prepared as described above, were incubated in 96-well Scintiplates (PerkinElmer) with test compounds diluted in DMSO, in 180 μl of 20 mM HEPES, pH 7.4, 10 mM MgCl2, 2 μg/well Saponin, 0.2% fatty acid free BSA (Assay buffer), 140 mM NaCl and 1.7 μM GDP. The assay was initiated with the addition of 20 μl of 1.5 nM [35S]-GTPγS (1100 Ci/mmol; GE Healthcare) in assay buffer. After 60 min incubation at 30° C. on a shaker, plates were centrifuged for 10 min at 2000 RPM. Supernatant was discarded and membrane bound radioactivity was measured on a PerkinElmer 1450 MicroBeta counter. Triplicate samples were averaged and expressed as % response relative to S1P activation in absence of compound (n=2).
Background: GTPγS resists hydrolysis and so accumulates on activated G proteins.

T1 sequence (P21453 whole entry, species assumed): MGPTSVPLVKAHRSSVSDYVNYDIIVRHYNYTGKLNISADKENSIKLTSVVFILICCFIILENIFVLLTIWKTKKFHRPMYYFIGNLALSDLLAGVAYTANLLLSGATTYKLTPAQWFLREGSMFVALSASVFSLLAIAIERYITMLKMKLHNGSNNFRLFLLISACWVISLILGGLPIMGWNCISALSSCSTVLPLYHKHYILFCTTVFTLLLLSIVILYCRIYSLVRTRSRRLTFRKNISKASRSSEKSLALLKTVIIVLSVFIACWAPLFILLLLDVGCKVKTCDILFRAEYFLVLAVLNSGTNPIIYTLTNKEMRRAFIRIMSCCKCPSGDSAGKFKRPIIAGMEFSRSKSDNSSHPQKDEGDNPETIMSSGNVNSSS

As a reminder, the EC50 is the midpoint of the concentration-response curve. A lower EC50 goes with an effect from little substance. For `Cc1ccccc1-c1ccc(-c2nc(-c3ccc(C(=O)O)c(F)c3)no2)cc1CO` [Example 58, 2-fluoro-4-{5-[2-(hydroxymethyl)-2′-methylbiphenyl-4-yl]-1,2,4-oxadiazol-3-yl}benzoic acid], the EC50 was 2930 nM.
Next, `COCc1cc(-c2nc(-c3cccc(C(=O)NCC(=O)OC)c3)no2)ccc1-c1ccccc1C` [Example 130, Methyl N-(3-{5-[2-(methoxymethyl)-2′-methylbiphenyl-4-yl]-1,2,4-oxadiazol-3-yl}benzoyl)glycinate]: 8.6 nM.
Next, `Cc1ccccc1-c1ccc(-c2nc(-c3ccc(C(=O)O)c(F)c3)no2)cc1CN1CCCC1` [Example 76, 2-fluoro-4-{5-[2′-methyl-2-(pyrrolidin-1-ylmethyl)biphenyl-4-yl]-1,2,4-oxadiazol-3-yl}benzoic acid, Hydrochloride salt]: 772 nM; `Cc1cc(-c2nc(-c3ccc(C(=O)O)c(F)c3)no2)ccc1N1CCOCC1` [Example 18, 2-fluoro-4-[5-(3-methyl-4-morpholin-4-ylphenyl)-1,2,4-oxadiazol-3-yl]benzoic acid]: 7000 nM.
Next, `COCc1cc(-c2nc(-c3ccc(Cl)c(C(=O)O)c3)no2)ccc1-c1ccccc1C` [Example 108, 2-chloro-5-{5-[2-(methoxymethyl)-2′-methylbiphenyl-4-yl]-1,2,4-oxadiazol-3-yl}benzoic acid]: 163 nM.
For `Cc1cc(-c2nc(-c3ccc(C(=O)O)c(F)c3)no2)ccc1-c1ccccc1C(F)(F)F` [Example 8, 2-fluoro-4-{5-[2-methyl-2′-(trifluoromethyl)biphenyl-4-yl]-1,2,4-oxadiazol-3-yl}benzoic acid], the EC50 was 850 nM.
Next, `Cc1cc(-c2nc(-c3ccc(C(=O)O)c(F)c3)no2)ccc1-c1ccccc1O` [Example 32, 2-fluoro-4-[5-(2′-hydroxy-2-methylbiphenyl-4-yl)-1,2,4-oxadiazol-3-yl]benzoic acid]: 2920 nM.
`Cc1ccccc1-c1ccc(-c2nc(-c3ccc(O)c(C(=O)O)c3)no2)cc1C` [Example 43, 5-[5-(2,2′-dimethylbiphenyl-4-yl)-1,2,4-oxadiazol-3-yl]-2-hydroxybenzoic acid] gave an EC50 of 4360 nM.
Next, `Cc1ccccc1-c1ccc(-c2nc(-c3ccc(C(=O)O)c(F)c3)no2)cc1OCC1CC1` [Example 105, 4-{5-[2-(cyclopropylmethoxy)-2′-methylbiphenyl-4-yl]-1,2,4-oxadiazol-3-yl}-2-fluorobenzoic acid]: 103 nM; `COCc1cc(-c2nc(-c3cccc(CCOCC(=O)O)c3)no2)ccc1-c1ccccc1C` [Example 161, [2-(3-{5-[2-(methoxymethyl)-2′-methylbiphenyl-4-yl]-1,2,4-oxadiazol-3-yl}phenyl)ethoxy]acetic acid]: 2.1 nM.
`COCCNCc1cccc(-c2noc(-c3ccc(-c4ccccc4C)c(COC)c3)n2)c1` [Example 188, 2-methoxy-N-(3-{5-[2-(methoxymethyl)-2′-methylbiphenyl-4-yl]-1,2,4-oxadiazol-3-yl}benzyl)ethanamine, Hydrochloride salt]: the EC50 was 4 nM.
Next, `COCc1cc(-c2nc(-c3cccc(OCCCC(=O)O)c3)no2)ccc1N1CCCCC1C` (stereo not shown) [Example 164, 4-(3-{5-[3-(methoxymethyl)-4-(2-methylpiperidin-1-yl)phenyl]-1,2,4-oxadiazol-3-yl}phenoxy)butanoic acid]: 1.5 nM.
Next, `COCCNC(=O)c1cccc(-c2noc(-c3ccc(-c4ccccc4C)c(COC)c3)n2)c1` [Example 181, N-(2-methoxyethyl)-3-{5-[2-(methoxymethyl)-2′-methylbiphenyl-4-yl]-1,2,4-oxadiazol-3-yl}benzamide]: 16 nM.
Next, `Cc1ccccc1-c1ccc(-c2nc(-c3ccc(C(=O)O)c(F)c3)no2)cc1COCC1CC1` [Example 61, 4-(5-{2-[(cyclopropylmethoxy)methyl]-2′-methylbiphenyl-4-yl}-1,2,4-oxadiazol-3-yl)-2-fluorobenzoic acid]: 2240 nM.
Compound `COCc1cc(-c2nc(-c3cccc(CN(CC(=O)OC(C)(C)C)C(=O)OC(C)(C)C)c3)no2)ccc1-c1ccccc1C` [Example 149, Tert-butyl N-(tert-butoxycarbonyl)-N-(3-{5-[2-(methoxymethyl)-2′-methylbiphenyl-4-yl]-1,2,4-oxadiazol-3-yl}benzyl)glycinate] returned an EC50 of 1240 nM.
Next, `CCOC(=O)C1(NC(=O)c2cccc(-c3noc(-c4ccc(-c5ccccc5C)c(COC)c4)n3)c2)CC1` [Example 131, Ethyl 1-[(3-{5-[2-(methoxymethyl)-2′-methylbiphenyl-4-yl]-1,2,4-oxadiazol-3-yl}benzoyl)amino]cyclopropanecarboxylate]: 35 nM; `COCc1cc(-c2nc(-c3ccc(C(=O)N(C)CC(=O)O)c(F)c3)no2)ccc1-c1ccccc1C` [Example 125, N-(2-fluoro-4-{5-[2-(methoxymethyl)-2′-methylbiphenyl-4-yl]-1,2,4-oxadiazol-3-yl}benzoyl)-N-methylglycine]: 86 nM.
As for `CCOC(=O)CCCOc1ccc(-c2noc(-c3ccc(N4CCCCC4C)c(COC)c3)n2)cc1F` (stereo not shown) [Example 163, ethyl 4-(2-fluoro-4-{5-[3-(methoxymethyl)-4-(2-methylpiperidin-1-yl)phenyl]-1,2,4-oxadiazol-3-yl}phenoxy)butanoate], it took 5.5 nM to reach a half-maximal effect (EC50).
As for `COCc1cc(-c2nc(-c3ccc(C(=O)N(C)CC(=O)OC)c(F)c3)no2)ccc1-c1ccccc1C` [Example 116, methyl N-(2-fluoro-4-{5-[2-(methoxymethyl)-2′-methylbiphenyl-4-yl]-1,2,4-oxadiazol-3-yl}benzoyl)-N-methylglycinate], the EC50 is 240 nM.
Next, `O=C(O)c1ccc(-c2noc(-c3ccc(N4CCCCC4)c([N+](=O)[O-])c3)n2)cc1F` [Example 14, 2-fluoro-4-[5-(3-nitro-4-piperidin-1-ylphenyl)-1,2,4-oxadiazol-3-yl]benzoic acid]: 5180 nM; `COCc1cc(-c2nc(-c3ccc(C(=O)NCCCC(=O)OC)c(F)c3)no2)ccc1-c1ccccc1C` [Example 126, Methyl 4-[(2-fluoro-4-{5-[2-(methoxymethyl)-2′-methylbiphenyl-4-yl]-1,2,4-oxadiazol-3-yl}benzoyl)amino]butanoate]: 35 nM.
Next, `COCc1cc(-c2nc(-c3ccc(C(=O)OC)c(F)c3)no2)ccc1N1CCCCC1C` (stereo not shown) [Example 113, methyl 2-fluoro-4-{5-[3-(methoxymethyl)-4-(2-methylpiperidin-1-yl)phenyl]-1,2,4-oxadiazol-3-yl}benzoate]: 485 nM; `COCc1cc(-c2nc(-c3ccc(F)c(CN(C)CC(=O)O)c3)no2)ccc1OC(C)C` [Example 158, N-(2-fluoro-5-{5-[4-isopropoxy-3-(methoxymethyl)phenyl]-1,2,4-oxadiazol-3-yl}benzyl)-N-methylglycine, Hydrochloride salt]: 10 nM.
Next, `COCc1cc(-c2nc(-c3ccc(C(=O)O)c(F)c3)no2)ccc1-c1cc(F)ccc1OC` [Example 89, 2-fluoro-4-{5-[5′-fluoro-2′-methoxy-2-(methoxymethyl)biphenyl-4-yl]-1,2,4-oxadiazol-3-yl}benzoic acid]: 460 nM.
Turning to `COCc1cc(-c2nc(-c3cc(C(=O)OC)ccc3OC)no2)ccc1-c1ccccc1C` [Example 106, methyl 4-methoxy-3-{5-[2-(methoxymethyl)-2′-methylbiphenyl-4-yl]-1,2,4-oxadiazol-3-yl}benzoate], a half-maximal response (EC50) required 50 nM.
With `Cc1cc(-c2nc(-c3ccc(C(=O)O)c(F)c3)no2)ccc1-c1ccccc1-c1ccccc1` [Example 31, 2-fluoro-4-[5-(2-methyl-1,1′:2′,1″-terphenyl-4-yl)-1,2,4-oxadiazol-3-yl]benzoic acid], the EC50 amounted to 2400 nM.
Regarding `CCc1ccccc1-c1ccc(-c2nc(-c3ccc(OCCCC(=O)O)c(F)c3)no2)cc1COC` [Example 162, 4-(4-{5-[2′-ethyl-2-(methoxymethyl)biphenyl-4-yl]-1,2,4-oxadiazol-3-yl}-2-fluorophenoxy)butanoic acid], the EC50 worked out at 5 nM.
Next, `Cc1ccccc1-c1ccc(-c2nc(-c3ccc(C(=O)O)c(F)c3)no2)cc1OC(C)C` [Example 101, 2-fluoro-4-[5-(2-isopropoxy-2′-methylbiphenyl-4-yl)-1,2,4-oxadiazol-3-yl]benzoic acid]: 233 nM.

(Values after patent US8202865B2, “Oxadiazole derivatives” (Merck Serono SA, priority 2007, dated 2012).)
